# Results published in EP4722213A1, “NITROGEN-CONTAINING FUNCTIONAL GROUP-SUBSTITUTED PYRIDAZINOPYRIDONE DERIVATIVE AND USE THEREOF” (Sichuan Huiyu Pharmaceutical Co., Ltd., priority 2023, dated 2024).
# Where two headings read alike, the source gives them in different places.
# Experiments:
# [1] = tested on: NCI-H358 non-small cell lung cancer cells; experiment: Inhibition of NCI-H358 cell proliferation (CellTiter-Glo 3D, 7 days); assay type: cell-based; details: Homo sapiens, NCI-H358, 168 h, 3D microspheres, read-out: Inhibitory activity against NCI-H358 cell proliferation (IC50)
# Procedure, shortened: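 NCI-H358 cells at 2000/well in ultra-low attachment plates grown overnight into spheroids, then exposed to 8-point 5-fold compound dilutions in RPMI-1640/10% FBS for 7 days at 37 °C. Viability by CellTiter-Glo 3D luminescence; inhibition relative to no-inhibitor and cell-free controls.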
# CYP3A4 = molecular target: T1, CYP3A4 (Homo sapiens, UniProt P08684); experiment: Inhibition of hepatic drug-metabolizing enzymes in human liver microsomes (substrates midazolam and testosterone); assay type: in vitro ADME
# T1 construct: human liver microsomes were used as the CYP450 enzyme source; from tissue; host or cells: human liver microsomes
# T1 sequence (P08684 whole entry): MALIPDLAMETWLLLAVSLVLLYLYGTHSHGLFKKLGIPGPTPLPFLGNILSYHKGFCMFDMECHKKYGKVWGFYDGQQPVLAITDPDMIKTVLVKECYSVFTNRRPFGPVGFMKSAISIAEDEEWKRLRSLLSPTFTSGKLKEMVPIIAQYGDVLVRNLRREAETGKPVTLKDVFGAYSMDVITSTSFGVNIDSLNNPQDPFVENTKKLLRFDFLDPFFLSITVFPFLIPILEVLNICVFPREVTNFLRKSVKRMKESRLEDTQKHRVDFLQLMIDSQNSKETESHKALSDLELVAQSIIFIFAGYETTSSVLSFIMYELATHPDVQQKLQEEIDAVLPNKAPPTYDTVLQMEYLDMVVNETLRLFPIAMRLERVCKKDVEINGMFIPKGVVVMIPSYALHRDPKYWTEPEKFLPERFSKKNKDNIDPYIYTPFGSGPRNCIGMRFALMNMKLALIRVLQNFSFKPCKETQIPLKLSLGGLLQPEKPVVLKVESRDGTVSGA
# Excerpt: The main site of drug metabolism is the liver, and the main component of the mixed-function oxidase system present in the liver is the CYP450 enzyme. This enzyme system causes most clinically observed drug-drug interactions, which in turn leads to an increased incidence of adverse drug reactions. CYP450 is a group of supergene family composed of many isozymes, wherein CYP3A4 acts as a major metabolizing enzyme and is involved in the metabolism of nearly half of clinically used drugs. Similarly, CYP2C9 and CYP2C19 also act as important metabolizing enzymes and are involved in the metabolism of various drugs clinically. Therefore, evaluating the risk of drug-drug interactions by testing the inhibitory activity of compounds on CYP450 enzymes at an early stage can improve the safety of medication use.
# In the present disclosure, human liver microsomes were used as the CYP450 enzyme source. The specific probe substrates for each CYP isoenzyme (wherein CYP3A4 used two substrates, midazolam and testosterone, denoted as CYP3A4-M and CYP3A4-T respectively) were incubated with a series of concentrations of the test compound in the presence of the cofactor NADPH. The production amount of metabolites of probe substrates in the incubation system was determined by LC-MS/MS, and the IC50 values of the test compound against each CYP450 enzyme subtype were calculated to evaluate its inhibitory effect on each CYP450 enzyme subtype. During the experiment, 49 µL of PBS, 50 µL of probe substrate, and 50 µL of human liver microsome working solution were sequentially added to the incubation system, followed by the addition of 1 µL of the test compound working solution at each concentration, and the mixture was mixed well. After pre-incubation at 37°C for 5 min, 50 µL of NADPH was added to initiate the reaction. After incubation for the corresponding time, an appropriate amount of ice-cold acetonitrile containing an internal standard was added to terminate the reaction. The mixture was vortexed to mix well, centrifuged, and the supernatant was taken. The supernatant was injected into LC-MS/MS to determine the production amount of metabolites of the probe substrate. Taking the enzyme activity at the 0-concentration point (characterized by the production amount of metabolites) as 100%, the percentage of residual enzyme activity of metabolites at different concentrations of the test compound was calculated. IC50 was calculated by the residual enzyme activity using Graphpad Prism software.
# SOS1 = molecular target: T2, SOS1 (Homo sapiens, UniProt Q07889); experiment: biochemical
# T2 sequence (Q07889 1-1333): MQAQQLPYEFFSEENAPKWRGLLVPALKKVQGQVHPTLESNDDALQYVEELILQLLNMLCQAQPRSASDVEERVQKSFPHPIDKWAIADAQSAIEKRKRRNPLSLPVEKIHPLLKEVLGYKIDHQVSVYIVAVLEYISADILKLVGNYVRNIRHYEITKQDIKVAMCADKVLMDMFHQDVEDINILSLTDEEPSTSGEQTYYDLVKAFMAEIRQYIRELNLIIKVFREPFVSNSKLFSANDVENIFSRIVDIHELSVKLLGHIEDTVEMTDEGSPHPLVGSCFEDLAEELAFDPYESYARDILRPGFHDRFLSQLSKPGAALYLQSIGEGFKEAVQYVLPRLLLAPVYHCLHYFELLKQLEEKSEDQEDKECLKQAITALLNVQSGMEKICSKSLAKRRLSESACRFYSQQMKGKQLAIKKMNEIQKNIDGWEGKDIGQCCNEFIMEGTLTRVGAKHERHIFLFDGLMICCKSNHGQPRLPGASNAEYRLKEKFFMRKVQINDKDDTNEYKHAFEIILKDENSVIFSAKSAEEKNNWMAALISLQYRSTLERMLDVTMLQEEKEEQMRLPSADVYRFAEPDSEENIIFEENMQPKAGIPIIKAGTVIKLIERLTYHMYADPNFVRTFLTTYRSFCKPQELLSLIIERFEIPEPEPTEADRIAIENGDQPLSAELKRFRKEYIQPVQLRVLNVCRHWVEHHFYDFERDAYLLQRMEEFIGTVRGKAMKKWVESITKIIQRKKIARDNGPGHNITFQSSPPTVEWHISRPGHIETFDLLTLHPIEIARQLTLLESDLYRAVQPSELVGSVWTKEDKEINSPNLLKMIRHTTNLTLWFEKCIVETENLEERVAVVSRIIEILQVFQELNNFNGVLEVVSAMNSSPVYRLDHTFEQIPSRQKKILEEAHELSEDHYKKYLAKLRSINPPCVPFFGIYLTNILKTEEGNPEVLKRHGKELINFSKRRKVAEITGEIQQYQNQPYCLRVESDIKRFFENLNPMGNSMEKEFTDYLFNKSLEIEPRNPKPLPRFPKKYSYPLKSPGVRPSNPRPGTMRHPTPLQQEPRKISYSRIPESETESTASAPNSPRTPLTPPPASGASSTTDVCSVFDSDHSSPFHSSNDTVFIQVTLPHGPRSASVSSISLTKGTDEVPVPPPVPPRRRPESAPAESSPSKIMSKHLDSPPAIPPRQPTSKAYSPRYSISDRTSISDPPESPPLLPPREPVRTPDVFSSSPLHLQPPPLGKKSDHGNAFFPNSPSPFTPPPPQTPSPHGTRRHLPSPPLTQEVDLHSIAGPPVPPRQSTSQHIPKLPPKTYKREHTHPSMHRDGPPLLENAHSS
# [2] = substrate midazolam, read-out: Inhibitory activity on drug-metabolizing enzymes (IC50, µM) CYP3A4-M
# [3] = substrate testosterone, read-out: Inhibitory activity on drug-metabolizing enzymes (IC50, µM) CYP3A4-T
Structure (SMILES),IC50 [1] [nM],IC50 (CYP3A4; [2]) [µM],IC50 (CYP3A4; [3]) [µM],IC50 (SOS1) [nM],"IC50 (CYP3A4; Inhibitory activity on drug-metabolizing enzymes (IC50, µM) CYP3A4-M, substrate midazolam) [µM]","IC50 (CYP3A4; Inhibitory activity on drug-metabolizing enzymes (IC50, µM) CYP3A4-T, substrate testosterone) [µM]"
"CCN1CCN(c2nnc(N[C@H](C)c3cccc(C(F)F)c3F)c3cn(N4CCOCC4)c(=O)cc23)CC1 [Example 109, (R)-4-((1-(3-(difluoromethyl)-2-fluorophenyl)ethyl)amino)-1-(4-ethylpiperazin-1-yl)-6-morpholinopyrido[3 ,4-d]pyridazin-7(6H)-one]",16.6,> 10,> 10,4.2,,
"CC(C)N1CCN(c2nnc(N[C@H](C)c3cccc(C(F)F)c3F)c3cn(N4CCOCC4)c(=O)cc23)CC1 [Example 111, (R)-4-((1-(3-(difluoromethyl)-2-fluorophenyl)ethyl)amino)-1-(4-isopropylpiperazin-1-yl)-6-morpholinopyrido[3 ,4-d]pyridazin-7(6H)-one]",14.4,> 10,> 10,4.4,,
"CCN1CCN(c2nnc(N[C@H](C)c3cccc(C(F)F)c3F)c3cn(C4CC(F)(F)C4)c(=O)cc23)CC1 [Example 98, (R)-6-(3,3-difluorocyclobutyl)-4-((1-(3-(difluoromethyl)-2-fluorophenyl)ethyl)amino)-1-(4-ethylpiperazin-1-yl)pyrido[3,4-d]pyridazin-7(6H)-one]",37.6,> 10,> 10,4.3,,
"C[C@@H](Nc1nnc(N2CCN(C3CCCC3)CC2)c2cc(=O)n(N3CCOCC3)cc12)c1cccc(C(F)F)c1F [Example 120, (R)-4-((1-(3-(difluoromethyl)-2-fluorophenyl)ethyl)amino)-1-(4-cyclopentylpiperazin-1-yl)-6-morpholinopyrido[3 ,4-d]pyridazin-7(6H)-one]",24.9,> 10,> 10,4.1,,
C[C@@H](Nc1nnc(N2CCN(C)CC2)c2cc(=O)n(C3CC3)cc12)c1cccc(C(F)F)c1F [Example 77],39.6,,,5.9,7.81,> 10
"CC(C)Nc1nnc(N[C@H](C)c2cccc(C(F)F)c2F)c2cn(C3(C)CC3)c(=O)cc12.O=CO [Example 12, (R)-4-((1-(3-(difluoromethyl)-2-fluorophenyl)ethyl)amino)-1-(isopropylamino)-6-(1-methylcyclopropyl) pyrido[3,4-d]pyridazin-7(6H)-one formate]",36.3,> 10,> 10,4.9,,
"CNc1nnc(N[C@H](C)c2cccc(C(F)F)c2F)c2cn(C3(C)CC3)c(=O)cc12.O=CO [Example 9, (R)-4-((1-(3-(difluoromethyl)-2-fluorophenyl)ethyl)amino)-1-(methylamino)-6-(1-methylcyclopropyl) pyrido[3,4-d]pyridazin-7(6H)-one formate]",42.6,> 10,> 10,4.5,,
"C[C@@H](Nc1nnc(N2CCN(C)CC2)c2cc(=O)n(C3CCC3)cc12)c1cccc(C(F)F)c1F [Example 88, (R)-6-cyclobutyl-4-((1-(3-(difluoromethyl)-2-fluorophenyl)ethyl)amino)-1-(4-methylpiperazin-1-yl)pyrido[3,4-d]pyridazin-7(6H)-one]",23.1,> 10,> 10,4.5,,
"CC(C)N1CCN(c2nnc(N[C@H](C)c3cccc(C(F)F)c3F)c3cn(C4(C)CC4)c(=O)cc23)CC1 [Example 217, (R)-4-((1-(3-(difluoromethyl)-2-fluorophenyl)ethyl)amino)-1-(4-isopropylpiperazin-1-yl)-6-(1-methylcyclopropyl) pyrido[3,4-d]pyridazin-7(6H)-one]",47.1,> 10,> 10,4.6,,
"CNc1nnc(N[C@H](C)c2cccc(C(F)(F)F)c2C)c2cn(C3CC3)c(=O)cc12 [Example 52, (R)-6-cyclopropyl-4-((1-(2-methyl-3-(trifluoromethyl)phenyl)ethyl)amino)-1-(methylamino)pyrid o[3,4-d]pyridazin-7(6H)-one]",61.5,> 10,> 10,5.7,,
"C[C@@H](Nc1nnc(N2CCN(C(C)(C)C)CC2)c2cc(=O)n(C3(C)CC3)cc12)c1cccc(C(F)F)c1F.O=CO [Example 222, (R)-1-(4-(tert-butyl)piperazin-1-yl)-4-((1-(3-(difluoromethyl)-2-fluorophenyl)ethyl)amino)-6-(1-methylcyclopropyl) pyrido[3,4-d]pyridazin-7(6H)-one formate]",33.4,> 10,> 10,5,,
"CCN1CCN(c2nnc(N[C@H](C)c3cccc(C(F)F)c3F)c3cn(C4(C)CC4)c(=O)cc23)CC1 [Example 216, (R)-4-((1-(3-(difluoromethyl)-2-fluorophenyl)ethyl)amino)-1-(4-ethylpiperazin-1-yl)-6-(1-methylcyclopropyl) pyrido[3,4-d]pyridazin-7(6H)-one]",36.4,> 10,> 10,4.6,,
"C[C@@H](Nc1nnc(N2CCN(C)CC2)c2cc(=O)n(N3CCOCC3)cc12)c1cccc(C(F)F)c1F [Example 110, (R)-4-((1-(3-(difluoromethyl)-2-fluorophenyl)ethyl)amino)-1-(4-methylpiperazin-1-yl)-6-morpholinopyrido[3 ,4-d]pyridazin-7(6H)-one]",9.6,> 10,> 10,3.3,,
"CNc1nnc(N[C@H](C)c2cccc(C(F)(F)F)c2C)c2cn(C3(C)CC3)c(=O)cc12 [Example 73, (R)-4-((1-(2-methyl-3-(trifluoromethyl)phenyl)ethyl)amino)-1-(methylamino)-6-(1-methylcyclopropyl) pyrido[3,4-d]pyridazin-7(6H)-one]",14.7,> 10,> 10,4.4,,
